{"source": "patent US4242354A", "about": "“2-(2-Thenolythio)-propionylglycine: method for its preparation and pharmaceutical formulations containing said compound” (Mediolanum Farmaceutici S.r.L., priority 1978, dated 1980)", "key": {"[1]": {"system": "citric acid-induced experimental bronchitis", "assay": "Experimental bronchitis due to citric acid in the guinea-pig", "type": "in vivo, spotted guinea-pigs, Morini strain", "set-up": "key to Microscopic Examination (Table 12), significance vs. controls (S) / Visualization of the bronchial tract, significance vs. controls (S) / Microscopic Examination (Table 14), significance vs. controls (S): h.s.: highly significant; Microscopic Examination score (Table 12; E, mean ± standard error) / Visualization of the bronchial tract score (E, mean ± standard error) / Microscopic Examination score (Table 14; E, mean ± standard error): scale not given here", "conditions": "50 mg/kg; for Microscopic Examination score (Table 12; E, mean ± standard error): control 4.00 ± 0.25; for Microscopic Examination score (Table 14; E, mean ± standard error): control 3.00 ± 0.00; for Visualization of the bronchial tract score (E, mean ± standard error): control 2.83 ± 0.16", "method": "Twenty-four spotted guinea-pigs, Morini strain, bodyweight 450 grams approximately, were used for the investigation, subdivided into 4 groups, each consisting of 6 animals, subjected to the following treatments:\nGroup 1: poisoning treatment with citric acid\nThe poisoning was made introducing the experimental animals into tight-sealed plexiglass cages containing a solution of 7.5 percent citric acid for 15 minutes daily, 6 days weekly, for 4 weeks.\nThe animals were sacrificed on the day after the last application, and the lungs were subjected to the same treatments and to the same assessments performed with the same scores already used in the case of the rat."}, "[2]": {"system": "elderly patients", "type": "in vivo, man", "method": "The drug was assessed, with respect to its mucolytic action, on thirty elderly patients ([…], maximal 87, mean age 72). […] The improvement was assessed on the basis of the following parameters:\ndecrease of the daily quantity of sputum;\ndecrease of the viscosity of the sputum;\nincrease of the Tiffeneau's index;\nimproved value of the erythrocyte sedimentation rate.\nA group of twenty patients, in the same mean age, was given for control purposes a known drug such as N-acetylcysteine."}, "[3]": {"system": "dog", "assay": "Chronic toxicity in the dog", "type": "in vivo", "conditions": "dogs"}, "[4]": {"assay": "Solubility and organoleptic properties", "type": "physicochemical"}, "[5]": {"system": "bronchopneumopathies of the pediatric age", "assay": "Clinical trials in pediatry, mucolytic efficacy in bronchopneumopathies", "type": "in vivo, man", "conditions": "decrease from 292.4±92.1 g/Hg, pediatric patients"}, "[6]": {"assay": "Stability test: melting point before and after heating", "type": "physicochemical", "method": "The stability tests were carried out according to the Rogers' nonisothermic method suitably integrated by the evaluation of physical data, melting point, weight variation, and spectrophotometric assay. For each single compound, the tests were performed on a series of samples, with the weight of 100 milligrams, added for the wet tests with 1 ml of distilled water. […] The sample were kept in a thermostat at increasing temperatures, i.e. from 25° to 80° C. […] The temperature, programmed according to the Rogers' formula, resulted to be 40° C. at the end of the first hour, 50° C. at the end of the second hour, 57° C. at the end of the third hour, 63° C. at the end of the fourth hour, 69° C. at the end of the fifth hour, 73° C. at the end of the sixth hour, 77° C. at the end of the seventh hour and, as already specified, 80° C. at the end of the eighth hour.\nThe melting point was established in a capillary tube, under identical conditions, on the samples No. 5 after heating for 8 hours in the previously specified conditions, and on the samples No. 10 after heating and evaporation to dryness as previously specified."}, "[7]": {"system": "bromobenzene poisoning", "assay": "Protective activity in the bromobenzene poisoning", "type": "in vivo, male rats (Sprague-Dawley)", "method": "Fifty male rats (Sprague-Dawley, 180-200 g bodyweight) were used for the investigation, subdivided into 5 groups, each consisting of 10 animals, given orally the following compounds\n(1) 5 percent gum arabic in tap water\n(2) 5 percent gum arabic in tap water\n(3) 2-(2-thenoylthio)-propionylglycine--200 mg/kg\n(4) 2-(2-thenoylthio)-propionylglycine--300 mg/kg\nSeven days later, the animals of the groups 2-3-4-[…] were given bromobenzene subcutaneously (150 mg/rat) while the remaining group (control) was given an equivalent volume of saline. Still seven days later, 5 of the animals of each group were given Nembutal (25 mg/kg/intraperitoneally), and the sleeping time was calculated.\nThe remaining 5 animals of each group were given bromophthalein at the dose of 50 mg intravenously; thirty minutes later, the animals were sacrificed and both the present bromophthalein and SGPT (serum glutamic pyruvic transaminase) were established in the blood."}, "[8]": {"system": "carbon tetrachloride poisoning", "assay": "Protective activity in the carbon tetrachloride poisoning", "type": "in vivo, male rats (Sprague-Dawley)", "method": "Fifty male rats (Sprague-Dawley, 180-200 grams bodyweight) were used for the investigation, subdivided into 5 groups: one group was given no treatment while the remaining 4 groups were poisoned for 7 consecutive days with CCl4 at the dosage of […] given subcutaneously."}}}
{"smiles": "CC(SC(=O)c1cccs1)C(=O)NCC(=O)O", "note": "(stereo not shown) [compound (I), 2-(2-thenoylthio)-propionylglycine]", "values": [{"measurement": "Microscopic Examination (Table 12), significance vs. controls (S)", "setting": "[1]; Table 12, group 2, orally", "value": "h.s."}, {"measurement": "Microscopic Examination score (Table 12; E, mean ± standard error)", "setting": "[1]; Table 12, group 2, orally", "value": "2.00 ± 0.36"}, {"measurement": "Microscopic Examination (Table 12), significance vs. controls (S)", "setting": "[1]; Table 12, group 3, aerosol", "value": "h.s."}, {"measurement": "Microscopic Examination score (Table 12; E, mean ± standard error)", "setting": "[1]; Table 12, group 3, aerosol", "value": "2.33 ± 0.49"}, {"measurement": "Microscopic Examination (Table 12), significance vs. controls (S)", "setting": "[1]; Table 12, group 4, rectally", "value": "h.s."}, {"measurement": "Microscopic Examination score (Table 12; E, mean ± standard error)", "setting": "[1]; Table 12, group 4, rectally", "value": "1.83 ± 0.40"}, {"measurement": "Microscopic Examination (Table 14), significance vs. controls (S)", "setting": "[1]; Table 14, group 2, orally", "value": "h.s."}, {"measurement": "Microscopic Examination score (Table 14; E, mean ± standard error)", "setting": "[1]; Table 14, group 2, orally", "value": "0.83 ± 0.30"}, {"measurement": "Microscopic Examination (Table 14), significance vs. controls (S)", "setting": "[1]; Table 14, group 3, aerosol", "value": "h.s."}, {"measurement": "Microscopic Examination score (Table 14; E, mean ± standard error)", "setting": "[1]; Table 14, group 3, aerosol", "value": "1.00 ± 0.36"}, {"measurement": "Microscopic Examination (Table 14), significance vs. controls (S)", "setting": "[1]; Table 14, group 4, rectally", "value": "h.s."}, {"measurement": "Microscopic Examination score (Table 14; E, mean ± standard error)", "setting": "[1]; Table 14, group 4, rectally", "value": "0.66 ± 0.42"}, {"measurement": "Visualization of the bronchial tract, significance vs. controls (S)", "setting": "[1]; group 2, orally", "value": "h.s."}, {"measurement": "Visualization of the bronchial tract score (E, mean ± standard error)", "setting": "[1]; group 2, orally", "value": "1.16 ± 0.30"}, {"measurement": "Visualization of the bronchial tract, significance vs. controls (S)", "setting": "[1]; group 3, aerosol", "value": "h.s."}, {"measurement": "Visualization of the bronchial tract score (E, mean ± standard error)", "setting": "[1]; group 3, aerosol", "value": "1.00 ± 0.36"}, {"measurement": "Visualization of the bronchial tract, significance vs. controls (S)", "setting": "[1]; group 4, rectally", "value": "h.s."}, {"measurement": "Visualization of the bronchial tract score (E, mean ± standard error)", "setting": "[1]; group 4, rectally", "value": "1.00 ± 0.44"}, {"measurement": "protective action, experimental bronchitis (citric acid)", "setting": "[1]; guinea-pig", "value": "marked protective action"}, {"measurement": "rapidity of action vs N-acetylcysteine", "setting": "[2]; elderly patients", "value": "markedly better in terms of rapidity of action"}, {"measurement": "fit of cough on aerosol administration", "setting": "[2]; in vivo", "value": "no fit of cough was observed"}, {"measurement": "patients with a marked improvement", "setting": "[2]; of thirty elderly patients, two suppositories daily, each 0.36 grams, six days", "value": "Twenty-six"}, {"measurement": "chronic toxicity results", "setting": "[3]", "value": "optimal"}, {"measurement": "odor", "setting": "[4]", "value": "odorless"}, {"measurement": "taste", "setting": "[4]", "value": "practically tasteless"}, {"measurement": "appearance in water", "setting": "[4]; 100 milligrams with 1 ml of distilled water", "value": "white suspension"}, {"measurement": "solubility", "setting": "[4]; all other inorganic solvents (so in the source)", "value": "scarcely soluble"}, {"measurement": "solubility", "setting": "[4]; chloroform", "value": "soluble"}, {"measurement": "solubility", "setting": "[4]; saturated solution of NaHCO3", "value": "soluble"}, {"measurement": "mean viscosimetric value of the mucus after treatment", "setting": "[5]", "value": "155.4±61.3", "unit": "g/Hg"}, {"measurement": "melting point variation", "setting": "[6]; after heating", "value": "no variations"}, {"measurement": "Final m.p. wet conditions (Sample 10)", "setting": "[6]; after heating 8 hours wet and evaporation to dryness", "value": "166-167 °C"}, {"measurement": "Final m.p. dry conditions (Sample 5)", "setting": "[6]; after heating for 8 hours, dry", "value": "166-167 °C"}, {"measurement": "Initial m.p.", "setting": "[6]; before heating", "value": "166-167 °C"}, {"measurement": "serum concentrations of SGPT", "setting": "[7]; oral, 200 and 300 mg/kg, bromobenzene-poisoned rat", "value": "significant reduction of the serum concentrations of SGPT"}, {"measurement": "liver impairment induced by bromobenzene", "setting": "[7]; oral, 200 and 300 mg/kg, rat", "value": "able to reduce the liver impairment"}, {"measurement": "sleeping time (Nembutal)", "setting": "[7]; oral, 200 and 300 mg/kg, Nembutal 25 mg/kg ip", "value": "statistically significant decrease of the sleeping time"}, {"measurement": "rate of excretion of bromophthalein", "setting": "[7]; vs poisoned controls, bromophthalein 50 mg iv, 30 minutes", "value": "less evident"}, {"measurement": "liver weight increase consequent to CCl4", "setting": "[8]; CCl4 0.5 ml/mg sc, 7 days, drugs intramuscularly, (I) 200 and 300 mg/kg, (II) 300 mg/kg", "value": "can prevent the liver weight increase"}, {"measurement": "efficacy in comparison with 2-mercaptopropionylglycine", "setting": "[8]; equivalent dosage, CCl4 poisoning, rat", "value": "statistically significant efficacy in preventing the liver weight increase as well as in reducing the liver fats levels"}]}
